In ChEMBL document CHEMBL5365449, “Permeation behavior of porphyrin derivatives with different functional group positions across cancer cell membranes” (Bioorg Med Chem Lett, 2023):

Key:
[1] = Drug accumulation of the compound in human MCF7 cells assessed as accumulation at 4 degC by fluorescence microscopy; type: ADME, cell-based
[2] = Drug accumulation of the compound in human MCF7 cells assessed as accumulation at lysosome by fluorescence microscopy; type: ADME, subcellular
[3] = Drug uptake in human MCF7 cells assessed as increase in internalization by measuring fold increase of fluorescence intensity in the presence of LDL by fluorescence spectrum analysis; type: ADME, cell-based
[4] = Drug accumulation of the compound in human MCF7 cells assessed as accumulation at mitochondria by fluorescence microscopy; type: ADME

Row | SMILES | Drug uptake [1] | Drug uptake [2] | fold change (FC) [3] | Drug uptake [4]
1 | O=C(Nc1ccc(-c2c3nc(c(-c4ccccc4)c4ccc([nH]4)c(-c4ccccc4)c4nc(c(-c5ccccc5)c5ccc2[nH]5)C=C4)C=C3)cc1)c1ccccc1 | 3.7 10^-2microM | Active | 6 | Active
2 | O=C(NC1=Cc2nc1c(-c1ccccc1)c1ccc([nH]1)c(-c1ccccc1)c1nc(c(-c3ccccc3)c3ccc([nH]3)c2-c2ccccc2)C=C1)c1ccccc1 | 7.5 10^-2microM | Active | 12 | Active
